Key:
[1] = Serum biochemical parameters (kidney and liver function) of tumor-induced mice; type: in vivo, BALB/c mice; details: mean ± SD (n = 3); for Kidney function Creatinine: Tumor 0.93 ± 0.15, Normal 0.32 ± 0.06; for Liver function Albumin: Tumor 3.56 ± 0.25, Normal 2.36 ± 0.15; for Liver function Protein: Tumor 4.93 ± 0.15, Normal 5.16 ± 0.20; for Kidney function Urea: Tumor 36.89 ± 3.43, Normal 17.30 ± 2.25
Experimental: (§1) Solid tumors were developed in BALB/c mice (n = 3) except the control group (group I) by injecting 1 × 10^4 viable 4T1 (RRID: CVCL_0125) mice breast carcinoma cells (resuspended in 50 μl of PBS) into the inguinal fourth mammary fat pad, and the tumor was allowed to develop for 14 days ([37], [38]). Mice were randomly divided into three groups, viz., untreated tumor (group II), mice treated intraperitoneally with 1 mg//kg bodyweight of rolipram (group III), and mice receiving 5 mg/kg bodyweight of rolipram, intraperitoneally (group IV) ([39], [40]). After 14 days, the mice were sacrificed. Lung, kidney, liver, serum, and the tumors were collected for further experiments ([15]).
The total protein in mouse serum was measured by biuret method, which relies on formation of reddish-violet color in alkaline copper solution ([46]). The absorptivity of the colored solution was measured at 570 nm and compared with known protein standards to determine the level of total protein in the serum. The serum urea level of mouse was determined using urea kit (Coral Clinical Systems; catalog no.: 1102240075), which relies on the reaction of phenolic chromogen and hypochlorite with the ammonia formed from urea ([47]). The absorbance of the test sample (AbsT) and standard sample (AbsS) was recorded at 570 nm, and the concentration of urea was determined by the formula urea (mg/dl) = (AbsT/AbsS) × 40, according to the manufacturer’s protocol. Level of serum creatinine was measured using creatinine kit (Coral Clinical Systems; catalog no.: 1101060035). Briefly, this kit utilizes the formation of a colored complex because of reaction between alkaline picric acid solution and creatinine ([48]). The initial absorbance of the test sample (Abs1T) and standard sample (Abs1S) was measured at 520 nm after 30 s of incubation, and the final absorbance of the test sample (Abs2T) and standard sample (Abs2S) was measured exactly after 60 s. The formula, creatinine (mg/dl) = (Abs2T – Abs1T)/(Abs2S – Abs1S) × 2, was used to determine the concentration of creatinine. Activities of AST and ALT were evaluated from the serum of mice using AST assay kit (catalog no.: MAK055) and ALT assay kit (catalog no.: MAK052) from Sigma–Aldrich, following the manufacturer’s protocol. The estimation of AST activity is based on the production of glutamate by the activity of AST present in the serum samples. The absorbance of the colored product was measured at 450 nm and compared with known standard samples to determine the activity ([49]). Similarly, the ALT assay kit is based on the production of pyruvate in the presence of ALT in serum. The activity of the ALT in mouse serum was determined by measuring the absorbance of the colored product at 570 nm and comparing with the known standard samples ([50]). All the spectrophotometric analyses were carried out in Bio-Rad iMark Microplate Reader (RRID: SCR_023799).

MDA-MB-231 cells [2] = test: Wound healing assay; type: cell-based, human
Experimental: (§2) Cells were seeded and allowed to attain a 2D monolayer of cells. […] The percentage of open area was evaluated using Tscratch software (CSElab, Koumoutsakos group at ETH Zurich, https://github.com/cselab/TScratch) (RRID: SCR_014282).

MCF-7 cells [3] = test: Wound healing assay; type: cell-based, human
Experimental: as §2

GLI1 = test: Immunohistochemistry of tumor tissue, GLI1; type: in vivo, BALB/c mice
Experimental: as §1
Mice mammary fat pad and mammary tumor tissues were processed as for histology, and 5 μm-thick sections were mounted on glass slides. The tissue sections were deparaffinized with xylene and hydrated with […] grades of alcohols (100% to 70%). Rehydrated sections were equilibrated in PBS. Antigen retrieval was performed by boiling the sections in a 0.1 M sodium citrate buffer (pH 6.0) for 10 min. […] The frequency (cell count) of positive and negative cells as well as the mean absorbance of the positive cells were plotted using MatPlotLib (RRID: SCR_008624), a Python (RRID: SCR_008394) 2D plotting library.

MDA-MB-231 cells [4] = test: Flow cytometric analysis of DNA content (PI); type: cell-based, human; details: MDA-MB-231, IC50 dose, 24 h, vs control
Experimental: (§3) After treating the cells with rolipram for 24 h, cells were stained with PI (BD Pharmingen PI/RNase Staining Buffer; BD Biosciences; catalog no.: BD550825), following fixing of cells with 70% ethanol for 1 h at 4°C and permeabilization with 0.1% Triton X-100 (Sigma–Aldrich; catalog no.: X100). The cells were then analyzed using BD LSRFortessa flow cytometer (RRID: SCR_019600), and the data were analyzed using BD FACSDiva 9.0 software ([30]) (RRID: SCR_001456).

MCF-7 cells [5] = test: Flow cytometric analysis of DNA content (PI); type: cell-based, human; details: MCF-7, IC50 dose, 24 h, vs control
Experimental: as §3

COc1ccc(C2CNC(=O)C2)cc1OC1CCCC1 (stereo not drawn) [rolipram, Rolipram]
Kidney function Creatinine ([1]; Tumor + 1 mg/kg): 0.45 ± 0.08 mg/dL | Liver function Albumin ([1]; Tumor + 1 mg/kg): 2.73 ± 0.15 g/dL | Liver function Protein ([1]; Tumor + 1 mg/kg): 5.30 ± 0.10 g/dL | Kidney function Urea ([1]; Tumor + 1 mg/kg): 20.39 ± 3.06 mg/dL | Liver function AST ([1]; Tumor + 1 mg/kg, Tumor 135.85 ± 11.7, Normal 85.23 ± 7.97): 119.69 ± 10.1 U/L | Kidney function Creatinine ([1]; Tumor + 5 mg/kg): 0.50 ± 0.05 mg/dL | Liver function Albumin ([1]; Tumor + 5 mg/kg): 2.66 ± 0.05 g/dL | Liver function Protein ([1]; Tumor + 5 mg/kg): 4.90 ± 0.20 g/dL | Kidney function Urea ([1]; Tumor + 5 mg/kg): 22.08 ± 2.34 mg/dL | Liver function ALT ([1]; Tumor + 5 mg/kg, Tumor 55.77 ± 2.38, Normal 43.31 ± 0.88): 55.69 ± 4.97 U/L | percentage of open area (wound) (MDA-MB-231 cells [2]; MDA-MB-231, IC50 dose, 24 and 48 h, untreated 33% to 20% and 12%): no significant change | cell migration capability (MDA-MB-231 cells [2]; MDA-MB-231, in the presence of TAK-243 (0.1 μM)): failed to retard the cell migration capability | percentage of open area (wound) (MCF-7 cells [3]; MCF-7, IC50 dose, up to 48 h, untreated 45% to 34% (24 h) and 22% (48 h)): failed to significantly reduce the percentage of open area | cell migration capability (MCF-7 cells [3]; MCF-7, in the presence of TAK-243 (0.1 μM)): failed to retard the cell migration capability | reduction of GLI1 expression in tumor tissue (GLI1; 1 mg/kg bodyweight): twofold | reduction of GLI1 expression in tumor tissue (GLI1; 5 mg/kg bodyweight): sixfold | G0/G1 cell population (MDA-MB-231 cells [4]): significantly increased | G0/G1 cell population (MCF-7 cells [5]): significantly increased

From PMC11879692, “PDE4 inhibitor rolipram represses hedgehog signaling via ubiquitin-mediated proteolysis of GLI transcription factors to regress breast cancer” (The Journal of Biological Chemistry, 2025)
